Measured values published in article PMC6251916, “CKD-506, a novel HDAC6-selective inhibitor, improves renal outcomes and survival in a mouse model of systemic lupus erythematosus” (Scientific Reports, 2018).

How the values were obtained:
[1] = molecular target: T1, HDAC8 (Homo sapiens, UniProt Q9BY41); assay: HDAC panel assay (enzyme activity); format: biochemical
T1 construct: purchased Reaction biology Corp. (Malvern, PA, USA)
T1 sequence (Q9BY41 1-377): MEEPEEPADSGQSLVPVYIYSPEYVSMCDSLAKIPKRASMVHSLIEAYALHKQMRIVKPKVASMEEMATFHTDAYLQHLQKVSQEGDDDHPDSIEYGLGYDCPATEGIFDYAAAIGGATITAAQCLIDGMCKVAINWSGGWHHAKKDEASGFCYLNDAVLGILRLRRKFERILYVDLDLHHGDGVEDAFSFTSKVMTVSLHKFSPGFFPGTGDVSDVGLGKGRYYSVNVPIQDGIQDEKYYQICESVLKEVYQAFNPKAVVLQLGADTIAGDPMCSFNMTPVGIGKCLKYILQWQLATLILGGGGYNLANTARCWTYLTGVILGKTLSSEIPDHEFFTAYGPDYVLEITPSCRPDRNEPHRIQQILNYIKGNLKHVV
Procedure: (§1) HDAC panel assay was performed by Reaction biology Corp. (Malvern, PA, USA) according to their validated protocol. To evaluate the potency and selectivity of CKD-506, HDAC panel assay was carried out by Reaction biology Corp. Briefly, the deacetylation reaction was performed in 50 mM Tris-HCl pH 8.0, 137 mM NaCl, 2.7 mM KCl, 1 mM MgCl2, and 1 mg/ml bovine serum albumin (BSA) with RHK-K(Ac)-AMC as substrate. After the reaction, a fluorescence signal (Ex. 360 nm/Em. 460 nm) developed (~30 min.) by addition of an equal volume of 2 mM nicotinamide, 16 mg/mL trypsin in 50 mM Tris-HCl pH 8.0, 137 mM NaCl, 2.7 mM KCl, and 1 mM MgCl2.

[2] = molecular target: T2, HDAC7 (Homo sapiens, UniProt Q8WUI4); assay: HDAC panel assay (enzyme activity); format: biochemical
T2 construct: purchased Reaction biology Corp. (Malvern, PA, USA)
T2 sequence (Q8WUI4 1-952): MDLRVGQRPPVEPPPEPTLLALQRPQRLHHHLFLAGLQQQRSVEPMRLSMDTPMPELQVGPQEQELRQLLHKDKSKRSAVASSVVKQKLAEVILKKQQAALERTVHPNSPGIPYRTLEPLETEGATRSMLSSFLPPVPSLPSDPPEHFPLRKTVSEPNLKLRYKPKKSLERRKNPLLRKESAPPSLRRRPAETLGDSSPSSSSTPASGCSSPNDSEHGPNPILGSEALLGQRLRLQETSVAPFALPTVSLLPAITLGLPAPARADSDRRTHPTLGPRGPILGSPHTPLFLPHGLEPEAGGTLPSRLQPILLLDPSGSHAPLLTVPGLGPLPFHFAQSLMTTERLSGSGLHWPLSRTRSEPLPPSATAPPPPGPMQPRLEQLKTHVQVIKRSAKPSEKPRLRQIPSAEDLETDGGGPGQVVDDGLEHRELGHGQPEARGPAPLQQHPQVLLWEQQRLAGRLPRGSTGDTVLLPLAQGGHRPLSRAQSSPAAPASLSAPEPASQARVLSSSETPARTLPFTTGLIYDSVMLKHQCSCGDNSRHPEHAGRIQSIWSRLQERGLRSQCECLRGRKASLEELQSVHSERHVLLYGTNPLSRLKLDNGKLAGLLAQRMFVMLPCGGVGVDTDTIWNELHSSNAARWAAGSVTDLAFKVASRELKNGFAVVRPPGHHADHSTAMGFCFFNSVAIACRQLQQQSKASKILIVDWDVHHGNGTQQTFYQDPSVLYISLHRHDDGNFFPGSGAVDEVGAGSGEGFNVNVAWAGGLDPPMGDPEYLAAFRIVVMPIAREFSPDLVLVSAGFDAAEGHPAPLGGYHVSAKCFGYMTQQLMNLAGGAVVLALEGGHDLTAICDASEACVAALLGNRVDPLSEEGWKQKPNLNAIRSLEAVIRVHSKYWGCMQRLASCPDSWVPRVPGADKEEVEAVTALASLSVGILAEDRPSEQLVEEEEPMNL
Procedure: as §1

[3] = system: other HDAC isoforms; assay: HDAC panel assay (enzyme activity); format: biochemical
Procedure: as §1

[4] = molecular target: T3, HDAC1 (Homo sapiens, UniProt Q13547); assay: HDAC panel assay (enzyme activity); format: biochemical
T3 construct: purchased Reaction biology Corp. (Malvern, PA, USA)
T3 sequence (Q13547 whole entry): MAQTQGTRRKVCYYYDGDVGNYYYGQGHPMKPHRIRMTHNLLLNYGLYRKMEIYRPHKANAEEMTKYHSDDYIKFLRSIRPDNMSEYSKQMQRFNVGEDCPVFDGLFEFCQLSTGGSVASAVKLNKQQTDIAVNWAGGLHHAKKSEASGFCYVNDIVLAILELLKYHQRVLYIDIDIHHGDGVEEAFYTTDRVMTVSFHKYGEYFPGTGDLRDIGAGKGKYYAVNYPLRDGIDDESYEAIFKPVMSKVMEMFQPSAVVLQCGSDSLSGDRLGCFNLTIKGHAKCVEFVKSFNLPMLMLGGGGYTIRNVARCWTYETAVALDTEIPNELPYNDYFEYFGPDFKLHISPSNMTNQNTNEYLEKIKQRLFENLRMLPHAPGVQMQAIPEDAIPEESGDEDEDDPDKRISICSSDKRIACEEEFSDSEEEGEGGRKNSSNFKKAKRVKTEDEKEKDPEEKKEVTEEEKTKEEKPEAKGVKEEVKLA
Procedure: as §1

[5] = system: NZB/W F1 female mice; assay: Murine SLE model: serum cytokine levels (Milliplex); format: in vivo, mouse; details: for Serum GM-CSF / Serum IFN-γ / Serum IL-1α / Serum IL-1β / Serum IL-2 / Serum IL-4 / Serum IL-6 / Serum IL-10 / Serum IL-12(70) / Serum IL-15 / Serum IL-17 / Serum IL-22 / Serum IL-23 / Serum TGF-β1 / Serum TNF-α: at autopsy, mean ± SD
Procedure: Serum samples were assayed using Milliplex® MAP Kits (Millipore) for granulocyte macrophage-colony stimulating factor (GM-CSF), interferon-γ (IFN-γ), interleukin-1α (IL-1α), IL-1β, IL-10, IL-12(p70), IL-15, IL-17a, IL-2, IL-4, IL-6, tumor necrosis factor α (TNF-α), transforming growth factor beta 1 (TGF-β1), IL-22, IL-23, IFN-inducible protein 10 (IP-10 (CXCL10)) and chemokine (C-C motif) ligand 2 (CCL2 (MCP-1)).

[6] = system: NZB/W F1 female mice; assay: Murine SLE model: BUN and anti-dsDNA antibody levels; format: in vivo, mouse
Procedure: Survival had been monitored until 42 weeks of age.
Blood samples had been collected from mice under isoflurane anesthesia every 4 weeks (at 24, 28, 32, 36, 40 weeks of age and autopsy), and the obtained serum samples had been kept at −70 °C until the analysis.

[7] = group D: CKD-506 10 mg/kg/day, n = 10
[8] = group E: CKD-506 30 mg/kg/day, n = 14

## CKD-506
[1]
  IC50: 2 to 5 µM
[2]
  IC50: 2 to 5 µM
[3]
  inhibition of enzyme activity of other HDAC isoforms: does not inhibit
[4]
  IC50: 2 to 5 µM
[5]; group CKD50, 36 weeks of age
  serum levels of IP-10 vs vehicle: significantly lower
[5]; group CKD50, 36 weeks of age, difference not statistically significant
  Mean serum levels of CCL2 vs vehicle: lower
[5]; [7]
  Serum GM-CSF: 2.65 ± 8.38 pg/mL
  Serum IFN-γ: 1.06 ± 3.34 pg/mL
  Serum IL-1α: 371.96 ± 261.58 pg/mL
  Serum IL-1β: 1.27 ± 2.04 pg/mL
  Serum IL-2: 1.91 ± 5.61 pg/mL
  Serum IL-4: 1.74 ± 0.60 pg/mL
  Serum IL-6: 7.21 ± 7.41 pg/mL
  Serum IL-10: 25.00 ± 25.33 pg/mL
  Serum IL-12(70): 1.94 ± 3.69 pg/mL
  Serum IL-15: 184.36 ± 280.13 pg/mL
  Serum IL-17: 10.40 ± 12.20 pg/mL
  Serum IL-22: 27.05 ± 31.48 pg/mL
  Serum IL-23: 1.96 ± 6.20 pg/mL
  Serum TGF-β1: 73356.45 ± 22951.98 pg/mL
  Serum TNF-α: 7.91 ± 8.45 pg/mL
[5]; [8]
  Serum GM-CSF: 5.32 ± 15.20 pg/mL
  Serum IFN-γ: 6.60 ± 15.24 pg/mL
  Serum IL-1α: 458.40 ± 339.71 pg/mL
  Serum IL-1β: 74.66 ± 264.02 pg/mL
  Serum IL-2: 9.32 ± 17.79 pg/mL
  Serum IL-4: 8.60 ± 25.44 pg/mL
  Serum IL-6: 21.23 ± 50.94 pg/mL
  Serum IL-10: 56.55 ± 146.53 pg/mL
  Serum IL-12(70): 74.50 ± 238.09 pg/mL
  Serum IL-15: 162.41 ± 200.63 pg/mL
  Serum IL-17: 21.14 ± 54.60 pg/mL
  Serum IL-22: 13.00 ± 16.48 pg/mL
  Serum IL-23: 100.56 ± 376.25 pg/mL
  Serum TGF-β1: 58807.36 ± 25015.67 pg/mL
  Serum TNF-α: 16.25 ± 50.35 pg/mL
[5]; group F: 50 mg/kg/day, n = 14
  Serum GM-CSF: 1.89 ± 7.09 pg/mL
  Serum IFN-γ: 2.07 ± 5.38 pg/mL
  Serum IL-1α: 629.16 ± 480.71 pg/mL
  Serum IL-1β: 3.86 ± 7.83 pg/mL
  Serum IL-2: 4.09 ± 9.84 pg/mL
  Serum IL-4: 3.70 ± 6.48 pg/mL
  Serum IL-6: 5.69 ± 8.94 pg/mL
  Serum IL-10: 8.31 ± 14.15 pg/mL
  Serum IL-12(70): 15.62 ± 45.25 pg/mL
  Serum IL-15: 26.24 ± 28.73 pg/mL
  Serum IL-17: 4.82 ± 7.15 pg/mL
  Serum IL-22: 6.37 ± 5.56 pg/mL
  Serum IL-23: 41.34 ± 154.68 pg/mL
  Serum TGF-β1: 73110.92 ± 17325.08 pg/mL
  Serum TNF-α: 1.24 ± 2.60 pg/mL
[6]; group CKD30, 40 weeks of age
  Levels of BUN vs vehicle: significantly lower
[6]; group CKD30, at autopsy
  Levels of BUN vs vehicle: significantly lower
[6]; group CKD50, 36 weeks of age
  Levels of BUN vs vehicle: significantly lower
[6]; group CKD50, 40 weeks of age
  Levels of BUN vs vehicle: significantly lower
[6]; group CKD50, at autopsy
  Levels of BUN vs vehicle: significantly lower
